Measurements published in publication PMC5970223, “Multiplexed profiling of GPCR activities by combining split TEV assays and EXT-based barcoded readouts” (Scientific Reports, 2018).
Where a name gives a salt, the structure may show the parent alone. Read-outs that look alike come from different tables or passages of the source.

Legend:
serotonin receptor HTR2A [1] = target: T1, serotonin receptor HTR2A (Homo sapiens, UniProt P28223); assay: multiplexed GPCRprofiler assay in U2OS cells; type: cell-based; conditions: for agonistic effect on HTR2A (drug alone): drug only for 6 h, subtle = less than 2-fold change, three consecutive increases
T1 sequence (P28223 81-471 limits assumed): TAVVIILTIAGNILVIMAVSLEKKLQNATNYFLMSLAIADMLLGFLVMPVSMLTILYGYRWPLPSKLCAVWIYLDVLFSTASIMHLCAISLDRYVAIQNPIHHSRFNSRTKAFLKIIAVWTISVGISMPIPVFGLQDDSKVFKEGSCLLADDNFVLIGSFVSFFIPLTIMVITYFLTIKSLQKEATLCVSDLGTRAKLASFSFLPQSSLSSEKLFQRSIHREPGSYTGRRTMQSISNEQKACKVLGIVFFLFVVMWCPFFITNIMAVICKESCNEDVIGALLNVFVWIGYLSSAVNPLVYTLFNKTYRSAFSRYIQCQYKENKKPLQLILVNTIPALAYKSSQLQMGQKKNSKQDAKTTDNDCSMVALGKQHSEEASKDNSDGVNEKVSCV
Description: (§1) Two hours after transfection, all cell populations were pooled, mixed, and evenly divided into fractions for plating onto assay dishes (Fig. 2a). The cells were cultured and stimulated under identical conditions for agonist or antagonist assays as initially described for GPCR split TEV assays (Supplementary Fig. S1a,b).
(§2) After cell lysis, RNA from each sample was isolated and converted into cDNA by reverse transcription. […] This permits the mixing of all samples and sequencing of all pooled samples using a single sequencing run (Fig. 2b). The sample barcodes enable tracing experimental conditions, whereas the read counts per EXTs serve as quantitative measurements for the corresponding GPCRs. […] From the normalized data the fold changes of receptor activities were finally calculated.
(§3) In addition to the stimulation with the single compounds, a compound-mixture (mix) of all agonists was tested. The first set of experiments were carried out in the human osteosarcoma cell line U2OS. We normalized the raw sequencing data to total read numbers of sample codes, followed by averaging reads of internal and external calibrator EXTs as described above (Supplementary Fig. S4).
(§4) Next, we applied the multiplexed GPCRprofiler to measure the effects of GPCR targeting drugs on receptor activity. […] In addition, binding affinities to α-adrenergic receptors and the histamine receptor HRH1 were described for paliperidone using biochemical assays[38]–[40]. […] To address any changes in GPCR activities caused by the selected drugs, receptors were stimulated for 6 h applying two different parameters. First, to monitor agonistic effects, GPCRs were treated with the drugs only (Supplementary Fig. S1a). Second, to measure antagonistic effects, GPCRs were treated both with the drugs and the corresponding agonist (Supplementary Fig. S1b). This experimental design therefore allows to identify potential antagonistic effects of agonists and vice versa. For a profiling experiment, drugs were applied at increasing concentrations. […] Alternatively, a drug-induced inhibition of agonist-mediated GPCR activation specifies the drug as antagonist.
Cells were resuspended in culture medium without antibiotics at a density of 1.5 × 10^6 cells/ml (U2OS) or 3 × 10^6 cells/ml (PC12). […] Transfection-mixes were added to cell suspensions and incubated for 2 h at 37 °C without shaking. Suspensions were centrifuged for 5 min at 900 rpm and resuspended in culture medium to remove transfection reagents.

HTR2A [2] = conditions: GF62 cells; cited from earlier work
HRH1 = conditions: cited from earlier work; for drug effect, IUPHAR: ref IUPHAR, Supplementary refs 2,3, 7, 10
ADRA2B = tested on: ADRA2B; parameters: method as in PubChem, Supplementary refs 1, 6, 17; conditions: ref PubChem, Supplementary refs 1, 6, 17; cited from earlier work
HTR2A [3] = conditions: cited from earlier work; for drug effect, PubChem: ref PubChem, Supplementary refs 1, 4–6, 8,9
ADRA2C = tested on: ADRA2C; parameters: method as in PubChem, Supplementary refs 1, 17; conditions: ref PubChem, Supplementary refs 1, 17; cited from earlier work
serotonin receptor HTR1A = tested on: T2, serotonin receptor HTR1A; assay: multiplexed GPCRprofiler assay in U2OS cells; type: cell-based, human; conditions: multiplexed GPCR assay
T2 construct: ORFs of GPCRs were PCR amplified; HA-Flag signal peptide (N); expressed in transfected cells; host or cells: U2OS
Description: as §1, §2, §4
(§5) Cells were resuspended in culture medium without antibiotics at a density of 1.5 × 10^6 cells/ml (U2OS) or 3 × 10^6 cells/ml (PC12). […] Transfection-mixes were added to cell suspensions and incubated for 2 h at 37 °C without shaking. Suspensions were centrifuged for 5 min at 900 rpm and resuspended in culture medium to remove transfection reagents. All transfection samples were combined within one pool and plated on multiple wells of 6-well plates and incubated for 24 h at 37 °C. Afterwards, cells were starved for 17–18 h and then treated with compounds for 6 h in duplicates. After compound treatment cells were washed with PBS and 500 µl RLT lysis buffer was applied for cell lysis. Lysates were processed for sequencing as described below.
(§6) RNA was additional in solution treated with Turbo DNase (Ambion) for 30 min at 37 °C and repurified over an RNeasy column. First-strand cDNA synthesis was performed with 1 µg total RNA using superscript III reverse transcriptase (Invitrogen) and 120 pmol of a random nanomer primer. […] On order to differentiate different samples 13mer barcodes were introduced between 5′ Ion adapter and target sequence. All processed samples of an experiment were combined within one pool and purified using PCR clean-up kit (Macherey-Nagel).
(§7) Raw sequencing data analyses were done by using BLAST algorithm and in-house developed R scripts.

histamine receptor HRH1 = tested on: T3, histamine receptor HRH1; assay: multiplexed GPCRprofiler assay in U2OS cells; type: cell-based, human; conditions: for drug-induced effect, GPCRprofiler: Supplementary Table S4, HRH1; for antagonistic effect on HRH1: U2OS cells, drug 1 h before agonist-mix (1 µM each)
T3 construct: ORFs of GPCRs were PCR amplified; expressed in transfected cells; host or cells: U2OS
Description: as §1, §2, §4, §5, §6, §7

[4] = tested on: T4, α-adrenergic receptor ADRA2C; assay: multiplexed GPCRprofiler assay in U2OS cells; type: cell-based, human; conditions: for drug-induced effect, GPCRprofiler: Supplementary Table S4, ADRA2C; for antagonistic effect on ADRA2C: U2OS cells, drug 1 h before agonist-mix (1 µM each)
T4 construct: ORFs of GPCRs were PCR amplified; expressed in transfected cells; host or cells: U2OS
Description: as §1, §2, §4, §5, §6, §7

serotonin receptor HTR2A [5] = target: T1, serotonin receptor HTR2A; conditions: PC12 cells
Description: as §1, §2
as §5, with “After compound treatment cells were washed with PBS and 500 µl RLT lysis buffer was applied for cell lysis. Lysates were processed for sequencing as described below.” left out

serotonin receptor HTR5A = conditions: U2OS cells (not in PC12 cells)
Description: as §1, §2, §3, §5
(§8) RNA was additional in solution treated with Turbo DNase (Ambion) for 30 min at 37 °C and repurified over an RNeasy column. […]

[6] = tested on: dopamine and the adrenergic receptors; conditions: U2OS cells, agonist 100 pM to 100 µM
Description: as §1, §2, §3, §5, §8

[7] = tested on: T5, α-adrenergic receptor ADRA2B; assay: multiplexed GPCRprofiler assay in U2OS cells; type: cell-based, human
T5 construct: ORFs of GPCRs were PCR amplified; expressed in transfected cells; host or cells: U2OS (multiplexed assays)
Description: as §1, §2, §4, §5, §6, §7

dopamine receptor DRD2 [8] = target: T6, dopamine receptor DRD2 (Homo sapiens, UniProt P14416); assay: multiplexed GPCRprofiler assay in U2OS cells; type: cell-based
T6 sequence (P14416 1-414 isoform P14416-2): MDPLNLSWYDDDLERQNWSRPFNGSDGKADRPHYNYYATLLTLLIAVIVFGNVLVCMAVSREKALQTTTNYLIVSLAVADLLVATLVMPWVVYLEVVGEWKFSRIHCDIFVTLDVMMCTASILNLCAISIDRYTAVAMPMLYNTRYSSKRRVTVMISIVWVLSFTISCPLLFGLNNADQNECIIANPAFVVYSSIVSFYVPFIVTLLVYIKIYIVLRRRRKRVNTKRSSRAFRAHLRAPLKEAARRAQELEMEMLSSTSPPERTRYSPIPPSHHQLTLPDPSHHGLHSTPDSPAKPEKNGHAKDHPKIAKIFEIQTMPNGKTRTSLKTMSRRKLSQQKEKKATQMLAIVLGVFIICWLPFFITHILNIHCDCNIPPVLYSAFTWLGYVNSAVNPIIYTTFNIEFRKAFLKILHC

HTR2A serotonin receptor = HTR2A serotonin receptor (Homo sapiens, UniProt P28223); assay: single GPCR split TEV assay, luciferase readout (β-arrestin2 recruitment); type: cell-based; conditions: standard single luciferase GPCR split TEV assay, validation (Fig. 4f); read-out: IC50 of HTR2A receptor inhibition
Chain of HTR2A serotonin receptor (P28223 81-471 limits assumed): as the sequence (P28223 81-471 limits assumed) above
From the text: (§9) GPCR split TEV assays allow monitoring ligand-dependent GPCR activities using the stimulation-dependent interaction of β-arrestin2 and a candidate GPCR. […] To do this, the NTEV fragment and the artificial transcription factor GAL4-VP16 (GV) were fused to the C-terminal end of a candidate GPCR, separated by a TEV cleavage site (tevS) (Fig. 1a,b). To improve the stability of the interaction between a given GPCR and the arrestin, a short sequence from the C-terminal end of the human arginine vasopressin receptor 2 (AVPR2) (abbreviated V2R) was introduced between a candidate GPCR and NTEV[17],[27]. V2R contains multiple phosphorylation sites for GRKs. These sites provide, when phosphorylated, enhanced binding of β-arrestin.
For these assays, cells were transiently transfected with GPCR split TEV components and reporters, which were allowed to express for 20 h. […] For antagonistic assays, compounds were added 1 h before agonist to ensure proper incubation (Supplementary Fig. S1b). For clarity, varying experimental conditions, such as plate formats, for applied assay formats are summarized in Supplementary Table S3.
For luciferase assays cells were plated on 96-well white plates at 4 × 10^4 cells/well (PC12) one day before the experiment. The assays were performed with 6 wells as replicates per condition. […]

DRD2 = conditions: ref PubChem, Supplementary refs 1, 4,5, 12–14; cited from earlier work
dopamine receptor DRD2 [9] = target: T6, dopamine receptor DRD2; assay: standard single luciferase GPCR split TEV assay; type: cell-based; conditions: validation (Fig. 4e), read-out: IC50 of DRD2 receptor inhibition
From the text: as §9
For luciferase assays cells were plated on 96-well white plates at 4 × 10^4 cells/well (PC12) one day before the experiment. The assays were performed with 6 wells as replicates per condition. […] Plasmids and lipofectamine 2000 transfection reagent (Invitrogen) were diluted in opti-MEM (Gibco) and incubated for 20 min at room temperature. Medium was removed from cells, the transfection-mix was added and the plates incubated for 2 h at 37 °C, followed by the adding of double-volume of culture medium to dilute transfection reagents. […]

[10] = U2OS cells, drug 1 h before agonist-mix (1 µM each)

O=C1CCc2ccc(OCCCCN3CCN(c4cccc(Cl)c4Cl)CC3)cc2N1 [Aripiprazole]
agonistic effect on HTR2A (drug alone) (serotonin receptor HTR2A [1]; U2OS cells): concentration-dependent agonistic effect
agonistic effect on HTR2A (drug alone) (serotonin receptor HTR2A [1]; U2OS cells, listed as aripiprazole): subtle agonistic effects
effect on HTR2A reported in the literature (HTR2A [2]): weak partial agonistic effect
drug effect, IUPHAR (HRH1): Antagonist
drug effect, PubChem (HRH1; ref PubChem, Supplementary refs 1, 4–6, 17): Antagonist
drug effect, PubChem (ADRA2B): Antagonist
drug effect, PubChem (HTR2A [3]): Antagonist
drug effect, PubChem (ADRA2C): Antagonist
partial agonism on HTR1A (serotonin receptor HTR1A): not detected
drug-induced effect, GPCRprofiler (histamine receptor HRH1): Antagonist
antagonistic effect on HRH1 (histamine receptor HRH1): inhibited
drug-induced effect, GPCRprofiler [4]: Antagonist
antagonistic effect on ADRA2C [4]: inhibited

NCCc1ccc(O)c(O)c1 [Dopamine, Dopamine hydrochloride]
activation of HTR2A by non-cognate agonist (serotonin receptor HTR2A [5]): activation
activation of HTR2A by non-cognate agonist (serotonin receptor HTR2A [1]; U2OS cells): activation
activation of HTR5A by non-cognate agonist (serotonin receptor HTR5A): activated by dopamine in U2OS cells only
signals of both receptor subfamilies (dopamine and adrenergic) upon stimulation [6]: elevated signals

Cc1nc2n(c(=O)c1CCN1CCC(c3noc4cc(F)ccc34)CC1)CCCC2O (stereo not shown) [Paliperidone]
drug-induced effect, GPCRprofiler (serotonin receptor HTR2A [1]; Supplementary Table S4, HTR2A): Antagonist
antagonistic effect on HTR2A (serotonin receptor HTR2A [1]; [10]): dose-dependent inhibition of receptor activity
drug effect, IUPHAR (HRH1): Antagonist
drug effect, PubChem (ADRA2B): Antagonist
drug effect, IUPHAR (HTR2A [3]; ref IUPHAR, Supplementary refs 2,3, 7, 10,11): Antagonist
drug effect, PubChem (HTR2A [3]): Antagonist
drug-induced effect, GPCRprofiler (histamine receptor HRH1): Antagonist
antagonistic effect on HRH1 (histamine receptor HRH1): dose-dependent inhibition of receptor activity
drug-induced effect, GPCRprofiler ([7]; Supplementary Table S4, ADRA2B): Antagonist
antagonistic effect on ADRA2B [7, 10]: dose-dependent inhibition of receptor activity
drug-induced effect, GPCRprofiler [4]: Antagonist
antagonistic effect on ADRA2C [4]: dose-dependent inhibition of receptor activity
drug-induced effect, GPCRprofiler (dopamine receptor DRD2 [8]; Supplementary Table S4, DRD2): Antagonist
antagonistic effect on DRD2 (dopamine receptor DRD2 [8]; [10]): dose-dependent inhibition of receptor activity
IC50 (HTR2A serotonin receptor): 3.65 nM
drug effect, PubChem (DRD2): Antagonist
IC50 (dopamine receptor DRD2 [9]): 188 nM
